Measured values from ChEMBL document CHEMBL1201862, “PubChem BioAssay data set” (2004).
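Compound exposure: 48 hours, 5 concentrations, 96-well plates. GI50 = concentration required for 50% inhibition of growth.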 Active and inactive are the calls of the source. No stated cut-off is given here; in the data, active = GI50 up to about 1.1 µM and inactive = higher.

Key:
Experiment in all cases: inhibition of tumour cell growth, NCI panel, 48 h
786-0 = test system: 786-0
UACC-257 = test system: UACC-257
NCI-H23 = test system: NCI-H23
OVCAR-5 = test system: OVCAR-5
RXF 393 = test system: RXF 393
COLO 205 = test system: COLO 205
HOP-92 = test system: HOP-92
IGROV-1 = test system: IGROV-1
HCT-116 = test system: HCT-116
T47D = test system: T47D
CCRF-CEM = test system: CCRF-CEM
CAKI-1 = test system: CAKI-1
SK-OV-3 = test system: SK-OV-3
HOP-62 = test system: HOP-62
TK-10 = test system: TK-10
SR = test system: SR
ACHN = test system: ACHN
K562 = test system: K562
HCC 2998 = test system: HCC 2998
MDA-N = test system: MDA-N
MDA-MB-231 = test system: MDA-MB-231
MDA-MB-435 = test system: MDA-MB-435
BT-549 = test system: BT-549
KM12 = test system: KM12
OVCAR-8 = test system: OVCAR-8
HT-29 = test system: HT-29
U-251 = test system: U-251
NCI/ADR-RES = test system: NCI/ADR-RES
SF-295 = test system: SF-295
DU-145 = test system: DU-145
UACC-62 = test system: UACC-62
SN12C = test system: SN12C
SF-268 = test system: SF-268
SK-MEL-2 = test system: SK-MEL-2
A549 = test system: A549
SF-539 = test system: SF-539
SW-620 = test system: SW-620
LOX IMVI = test system: LOX IMVI
RPMI-8226 = test system: RPMI-8226
NCI-H522 = test system: NCI-H522
Hs-578T = test system: Hs-578T
MOLT-4 = test system: MOLT-4
SK-MEL-5 = test system: SK-MEL-5
HCT-15 = test system: HCT-15
UO-31 = test system: UO-31
MCF7 = test system: MCF7
SK-MEL-28 = test system: SK-MEL-28
A498 = test system: A498
OVCAR-3 = test system: OVCAR-3
M14 = test system: M14
Malme-3M = test system: Malme-3M
NCI-H226 = test system: NCI-H226
SNB-19 = test system: SNB-19
EKVX = test system: EKVX
HL-60 = test system: HL-60
SNB-75 = test system: SNB-75
OVCAR-4 = test system: OVCAR-4
PC-3 = test system: PC-3
NCI-H460 = test system: NCI-H460

Cn1c(=O)[nH]c2[nH]c3ccccc3c2c1=O
GI50 (786-0): > 100 µM (inactive) | GI50 (UACC-257): > 100 µM (inactive) | GI50 (NCI-H23): > 100 µM (inactive) | GI50 (OVCAR-5): > 100 µM (inactive) | GI50 (RXF 393): > 100 µM (inactive) | GI50 (COLO 205): > 100 µM (inactive) | GI50 (HOP-92): > 100 µM (inactive) | GI50 (IGROV-1): > 100 µM (inactive) | GI50 (HCT-116): > 100 µM (inactive) | GI50 (T47D): > 100 µM (inactive) | GI50 (CCRF-CEM): > 100 µM (inactive) | GI50 (CAKI-1): > 100 µM (inactive) | GI50 (SK-OV-3): > 100 µM (inactive) | GI50 (HOP-62): > 100 µM (inactive) | GI50 (TK-10): > 100 µM (inactive) | GI50 (SR): > 100 µM (inactive) | GI50 (ACHN): > 100 µM (inactive) | GI50 (K562): > 100 µM (inactive) | GI50 (HCC 2998): > 100 µM (inactive) | GI50 (MDA-N): > 100 µM (inactive) | GI50 (MDA-MB-231): > 100 µM (inactive) | GI50 (MDA-MB-435): > 100 µM (inactive) | GI50 (BT-549): > 100 µM (inactive) | GI50 (KM12): > 100 µM (inactive) | GI50 (OVCAR-8): > 100 µM (inactive) | GI50 (HT-29): > 100 µM (inactive) | GI50 (U-251): > 100 µM (inactive) | GI50 (NCI/ADR-RES): > 100 µM (inactive) | GI50 (SF-295): > 100 µM (inactive) | GI50 (DU-145): > 100 µM (inactive) | GI50 (UACC-62): > 100 µM (inactive) | GI50 (SN12C): > 100 µM (inactive) | GI50 (SF-268): > 100 µM (inactive) | GI50 (SK-MEL-2): > 100 µM (inactive) | GI50 (A549): > 100 µM (inactive) | GI50 (SF-539): > 100 µM (inactive) | GI50 (SW-620): > 100 µM (inactive) | GI50 (LOX IMVI): > 100 µM (inactive) | GI50 (RPMI-8226): 92 µM (inactive) | GI50 (NCI-H522): > 100 µM (inactive) | GI50 (Hs-578T): 65.5 µM (inactive) | GI50 (MOLT-4): > 100 µM (inactive) | GI50 (SK-MEL-5): > 100 µM (inactive) | GI50 (HCT-15): > 100 µM | GI50 (UO-31): > 100 µM (inactive) | GI50 (MCF7): > 100 µM (inactive) | GI50 (SK-MEL-28): > 100 µM (inactive) | GI50 (A498): > 100 µM (inactive) | GI50 (OVCAR-3): > 100 µM (inactive) | GI50 (M14): > 100 µM (inactive) | GI50 (Malme-3M): > 100 µM (inactive) | GI50 (NCI-H226): > 100 µM (inactive) | GI50 (SNB-19): > 100 µM (inactive) | GI50 (EKVX): > 100 µM (inactive) | GI50 (HL-60): > 100 µM (inactive) | GI50 (SNB-75): 32.1 µM (inactive)

N/C(=N\c1ccc(Cl)cc1)NS(=O)(=O)c1c(C(F)(F)F)cccc1C(F)(F)F
GI50 (786-0): 24.8 µM (inactive) | GI50 (UACC-257): 18.6 µM (inactive) | GI50 (NCI-H23): 5.58 µM (inactive) | GI50 (OVCAR-5): 20.2 µM (inactive) | GI50 (RXF 393): 45.8 µM (inactive) | GI50 (COLO 205): 11.1 µM (inactive) | GI50 (HOP-92): 16.7 µM (inactive) | GI50 (IGROV-1): 16.6 µM (inactive) | GI50 (HCT-116): 10 µM (inactive) | GI50 (T47D): 12.5 µM (inactive) | GI50 (SK-OV-3): 35.2 µM (inactive) | GI50 (HOP-62): 24 µM (inactive) | GI50 (OVCAR-4): 17.5 µM (inactive) | GI50 (TK-10): 24 µM (inactive) | GI50 (SR): > 100 µM (inactive) | GI50 (ACHN): 14.5 µM (inactive) | GI50 (K562): > 100 µM (inactive) | GI50 (MDA-N): 22.2 µM (inactive) | GI50 (MDA-MB-231): 22.2 µM (inactive) | GI50 (BT-549): 29.3 µM (inactive) | GI50 (KM12): 4.89 µM (inactive) | GI50 (OVCAR-8): 20.7 µM (inactive) | GI50 (PC-3): 5.45 µM (inactive) | GI50 (HT-29): 19.8 µM (inactive) | GI50 (U-251): 13.5 µM (inactive) | GI50 (NCI/ADR-RES): 12.2 µM (inactive) | GI50 (SF-295): 7.85 µM (inactive) | GI50 (DU-145): 46.5 µM (inactive) | GI50 (UACC-62): 8.34 µM (inactive) | GI50 (SN12C): 16.1 µM (inactive) | GI50 (SF-268): 23.3 µM (inactive) | GI50 (SK-MEL-2): 12.7 µM (inactive) | GI50 (NCI-H460): 14.5 µM (inactive) | GI50 (A549): 12.6 µM (inactive) | GI50 (SF-539): 41.3 µM (inactive) | GI50 (SW-620): 33.3 µM (inactive) | GI50 (LOX IMVI): 16.3 µM (inactive) | GI50 (RPMI-8226): > 100 µM (inactive) | GI50 (NCI-H522): 10.1 µM (inactive) | GI50 (Hs-578T): 17.9 µM (inactive) | GI50 (MOLT-4): > 100 µM (inactive) | GI50 (SK-MEL-5): 17.5 µM (inactive) | GI50 (HCT-15): 17 µM | GI50 (UO-31): 2.29 µM (inactive) | GI50 (MCF7): 15.6 µM (inactive) | GI50 (SK-MEL-28): 62.5 µM (inactive) | GI50 (A498): 17.8 µM (inactive) | GI50 (OVCAR-3): 16.6 µM (inactive) | GI50 (M14): 26.3 µM (inactive) | GI50 (Malme-3M): 17.4 µM (inactive) | GI50 (NCI-H226): 27.6 µM (inactive) | GI50 (SNB-19): 18.9 µM (inactive) | GI50 (EKVX): 5.93 µM (inactive) | GI50 (HL-60): 20 µM (inactive) | GI50 (SNB-75): 41.8 µM (inactive)
